Patent US10202368B2, “CXCR7 receptor modulators” (IDORSIA PHARMACEUTICALS LTD, priority 2014, dated 2019)

Biological target: CXCR7 (Homo sapiens (Human), UniProt P25106)
Test: PathHunter CHO-K1 CXCR7 β-arrestin assay (agonistic activity)
Format: cell-based
Settings: β-arrestin recruitment in PathHunter CHO-K1 CXCR7 β-arrestin cells, 90 minutes at 37° C., geometric mean values
Description: The CXCI12 receptor and CXCR7 agonistic activities of the compounds of formula (I) are determined in accordance with the following experimental method.
The assay is using the PathHunter™ CHO-K1 CXCR7 β-arrestin cell line from DiscoverX. The system is based on the Enzyme Fragment Complementation Technology. Two complementing fragments of the β-galactosidase enzyme are expressed within stably transfected cells. The larger portion of β-gal, termed EA for Enzyme Acceptor, is fused to the C-terminus of b-arrestin 2. The smaller fragment, termed ProLink™ tag, is fused to CXCR7 at the C-terminus. Upon activation, b-arrestin is recruited which forces the interaction of ProLink and EA, allowing complementation of the two fragments of b-gal and the formation of a functional enzyme which is capable of hydrolysing the substrate and generating a chemiluminescent signal.
CHO-K1 CXCR7 β-arrestin cells are detached from culture dishes with a cell dissociation buffer (Invitrogen, #13151-014) and collected in growing medium (F12 HAMS 90% (v/v)/FCS 10% (v/v), Penicillin/streptomycin 1% (v/v)). 5000 cells per well (in 20 μl) are seeded in a 384 well plate (white-walled, clear bottom; BD Falcon #353274). The plate is incubated at 37° C./5% CO2 for 24 hours. Medium is then replaced by 20 μl OPTIMEM (Invitrogen #31985) for 3 to 4 hours. Test compounds are dissolved at 10 mM in DMSO and serially diluted in DMSO to 200× of the final concentration for dose response curves. Compounds are then diluted 1:33.3 in HBSS1X. 5 μl/well of HBSS1X/20 mM HEPES/0.2% BSA are added to the assay plate followed by addition of 5 μl/well of diluted compounds. CXCL12 (Peprotech #300-28A) may be used as a reference agonist. The plate is incubated for 90 minutes at 37° C. 12 μl of detection reagent (Path Hunter Detection Kit, DiscoveRx, #93-0001) is transferred to the assay plate and to the plate is incubated for 1 hour at room temperature. Luminescent signal is read in a microplate reader (FLUOstar Optima, bmg). The calculated EC50 values may fluctuate depending on the daily cellular assay performance. Fluctuations of this kind are known to those skilled in the art. Average EC50 values from several measurements are given as geometric mean values.

Chain of CXCR7 (P25106 whole entry): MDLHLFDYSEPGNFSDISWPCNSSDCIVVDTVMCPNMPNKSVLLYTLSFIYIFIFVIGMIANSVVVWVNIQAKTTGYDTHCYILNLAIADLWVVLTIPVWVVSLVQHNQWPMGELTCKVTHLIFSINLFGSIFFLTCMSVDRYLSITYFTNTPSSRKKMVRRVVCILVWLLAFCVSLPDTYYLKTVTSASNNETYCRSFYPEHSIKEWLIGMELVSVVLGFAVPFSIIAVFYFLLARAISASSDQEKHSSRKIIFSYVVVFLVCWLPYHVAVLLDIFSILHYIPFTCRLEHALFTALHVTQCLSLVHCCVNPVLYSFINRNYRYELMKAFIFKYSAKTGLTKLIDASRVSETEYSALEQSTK
Chain of CXCR7 (P32121 whole entry partner): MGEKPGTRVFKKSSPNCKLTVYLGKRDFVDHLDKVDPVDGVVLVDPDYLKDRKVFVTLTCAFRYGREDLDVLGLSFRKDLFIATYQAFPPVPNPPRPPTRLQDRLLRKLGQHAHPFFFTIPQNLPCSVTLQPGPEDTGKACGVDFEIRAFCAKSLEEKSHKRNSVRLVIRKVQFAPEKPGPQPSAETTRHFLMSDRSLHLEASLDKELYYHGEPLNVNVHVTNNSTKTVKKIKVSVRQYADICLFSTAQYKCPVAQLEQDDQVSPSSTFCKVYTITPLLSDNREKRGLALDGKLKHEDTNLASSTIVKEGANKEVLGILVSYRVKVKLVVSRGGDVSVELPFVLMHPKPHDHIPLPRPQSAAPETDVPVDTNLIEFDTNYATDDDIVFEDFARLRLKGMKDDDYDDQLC

Compound	EC50 [nM]
2-(4-Cyclopropylmethyl-1-methyl-2,3,4,5-tetrahydro-1H-benzo[e][1,4]diazepin-9-ylamino)-N-(2-morpholin-4-yl-ethyl)-N-(3-trifluoromethyl-pyridin-2-ylmethyl)-acetamide [Example 55]	10
CC(C)CN1CCOc2c(cccc2NCC(=O)N(CCN(C)C)Cc2ccccc2C(F)(F)F)C1 [Example 1, N-(2-Dimethylamino-ethyl)-2-(4-isobutyl-2,3,4,5-tetrahydro-benzo[f][1,4]oxazepin-9-ylamino)-N-(2-trifluoromethyl-benzyl)-acetamide]	8
CC(C)CN1CCOc2c(cccc2NCC(=O)N(CCN(C)C)Cc2ncccc2C(F)(F)F)C1 [Example 2, N-(2-Dimethylamino-ethyl)-2-(4-isobutyl-2,3,4,5-tetrahydro-benzo[f][1,4]oxazepin-9-ylamino)-N-(3-trifluoromethyl-pyridin-2-ylmethyl)-acetamide]	3
CC(C)CN1CCOc2c(cccc2NCC(=O)N(CCN(C)C)Cc2ncccc2Cl)C1 [Example 3, N-(3-Chloro-pyridin-2-ylmethyl)-N-(2-dimethylamino-ethyl)-2-(4-isobutyl-2,3,4,5-tetrahydro-benzo[f][1,4]oxazepin-9-ylamino)-acetamide]	9
CCN1CCOc2c(cccc2NCC(=O)N(CCN(C)C)Cc2ncccc2Cl)C1 [Example 4, N-(3-Chloro-pyridin-2-ylmethyl)-N-(2-dimethylamino-ethyl)-2-(4-ethyl-2,3,4,5-tetrahydro-benzo[f][1,4]oxazepin-9-ylamino)-acetamide]	24
CCN1CCOc2c(cccc2NCC(=O)N(CCN(C)C)Cc2ccccc2C(F)(F)F)C1 [Example 5, N-(2-Dimethylamino-ethyl)-2-(4-ethyl-2,3,4,5-tetrahydro-benzo[f][1,4]oxazepin-9-ylamino)-N-(2-trifluoromethyl-benzyl)-acetamide]	7
CCCN1CCOc2c(cccc2NCC(=O)N(CCN(C)C)Cc2ncccc2Cl)C1 [Example 6, N-(3-Chloro-pyridin-2-ylmethyl)-N-(2-dimethylamino-ethyl)-2-(4-propyl-2,3,4,5-tetrahydro-benzo[f][1,4]oxazepin-9-ylamino)-acetamide]	19
CCCN1CCOc2c(cccc2NCC(=O)N(CCN(C)C)Cc2ccccc2C(F)(F)F)C1 [Example 7, N-(2-Dimethylamino-ethyl)-2-(4-propyl-2,3,4,5-tetrahydro-benzo[f][1,4]oxazepin-9-ylamino)-N-(2-trifluoromethyl-benzyl)-acetamide]	4
CC(C)CN1CCOc2c(cccc2NCC(=O)N(CCN(C)C)Cc2cccc(Br)c2)C1 [Example 8, N-(3-Bromo-benzyl)-N-(2-dimethylamino-ethyl)-2-(4-isobutyl-2,3,4,5-tetrahydro-benzo[f][1,4]oxazepin-9-ylamino)-acetamide]	36
COc1ccnc(CN(CCN(C)C)C(=O)CNc2cccc3c2OCCN(CC(C)C)C3)c1 [Example 9, N-(2-Dimethylamino-ethyl)-2-(4-isobutyl-2,3,4,5-tetrahydro-benzo[f][1,4]oxazepin-9-ylamino)-N-(4-methoxy-pyridin-2-ylmethyl)-acetamide]	200
CC(C)CN1CCOc2c(cccc2NCC(=O)N(CCN(C)C2CC2)Cc2ccccc2C(F)(F)F)C1 [Example 10, N-[2-(Cyclopropyl-methyl-amino)-ethyl]-2-(4-isobutyl-2,3,4,5-tetrahydro-benzo[f][1,4]oxazepin-9-ylamino)-N-(2-trifluoromethyl-benzyl)-acetamide]	58
CC(C)CN1CCOc2c(cccc2NCC(=O)N(CCN2CCCC2=O)Cc2ccccc2C(F)(F)F)C1 [Example 11, 2-(4-Isobutyl-2,3,4,5-tetrahydro-benzo[f][1,4]oxazepin-9-ylamino)-N-[2-(2-oxo-pyrrolidin-1-yl)-ethyl]-N-(2-trifluoromethyl-benzyl)-acetamide]	190
CC(C)CN1CCOc2c(cccc2NCC(=O)N(CCN2CCCC2)Cc2ccc(F)cc2F)C1 [Example 12, N-(2,4-Difluoro-benzyl)-2-(4-isobutyl-2,3,4,5-tetrahydro-benzo[f][1,4]oxazepin-9-ylamino)-N-(2-pyrrolidin-1-yl-ethyl)-acetamide]	14
CC(C)CN1CCOc2c(cccc2NCC(=O)N(CCN2CCC(F)(F)CC2)Cc2ncccc2Cl)C1 [Example 13, N-(3-Chloro-pyridin-2-ylmethyl)-N-[2-(4,4-difluoro-piperidin-1-yl)-ethyl]-2-(4-isobutyl-2,3,4,5-tetrahydro-benzo[f][1,4]oxazepin-9-ylamino)-acetamide]	88
Cc1ccnc(CN(CCN(C)C)C(=O)CNc2cccc3c2OCCN(CC(C)C)C3)c1 [Example 14, N-(2-Dimethylamino-ethyl)-2-(4-isobutyl-2,3,4,5-tetrahydro-benzo[f][1,4]oxazepin-9-ylamino)-N-(4-methyl-pyridin-2-ylmethyl)-acetamide]	76
CC(C)CN1CCOc2c(cccc2NCC(=O)N(CCN2CCCC2)Cc2ccccc2Cl)C1 [Example 15, N-(2-Chloro-benzyl)-2-(4-isobutyl-2,3,4,5-tetrahydro-benzo[f][1,4]oxazepin-9-ylamino)-N-(2-pyrrolidin-1-yl-ethyl)-acetamide]	11
CC(C)CN1CCOc2c(cccc2NCC(=O)N(CCN2CCOCC2)Cc2ccccc2C(F)(F)F)C1 [Example 16, 2-(4-Isobutyl-2,3,4,5-tetrahydro-benzo[f][1,4]oxazepin-9-ylamino)-N-(2-morpholin-4-yl-ethyl)-N-(2-trifluoromethyl-benzyl)-acetamide]	74
CC(C)CN1CCOc2c(cccc2NCC(=O)N(CCN(C)C)Cc2ccc(F)cc2C(F)(F)F)C1 [Example 17, N-(2-Dimethylamino-ethyl)-N-(4-fluoro-2-trifluoromethyl-benzyl)-2-(4-isobutyl-2,3,4,5-tetrahydro-benzo[f][1,4]oxazepin-9-ylamino)-acetamide]	59
CC(C)CN1CCOc2c(cccc2NCC(=O)N(CCN(C)C)Cc2cccc(C(F)(F)F)c2)C1 [Example 18, N-(2-Dimethylamino-ethyl)-2-(4-isobutyl-2,3,4,5-tetrahydro-benzo[f][1,4]oxazepin-9-ylamino)-N-(3-trifluoromethyl-benzyl)-acetamide]	53
CC(C)CN1CCOc2c(cccc2NCC(=O)N(CCN(C)C)Cc2c(F)cccc2F)C1 [Example 19, N-(2,6-Difluoro-benzyl)-N-(2-dimethylamino-ethyl)-2-(4-isobutyl-2,3,4,5-tetrahydro-benzo[f][1,4]oxazepin-9-ylamino)-acetamide]	12
CC(=O)N1CCOc2c(cccc2NCC(=O)N(CCN(C)C)Cc2ccccc2C(F)(F)F)C1 [Example 20, 2-(4-Acetyl-2,3,4,5-tetrahydro-benzo[f][1,4]oxazepin-9-ylamino)-N-(2-dimethylamino-ethyl)-N-(2-trifluoromethyl-benzyl)-acetamide]	73
CCN1CCNc2c(cccc2NCC(=O)N(CCN(C)C)Cc2ccccc2C(F)(F)F)C1 [Example 21, N-(2-(dimethylamino)ethyl)-2-((4-ethyl-2,3,4,5-tetrahydro-1H-benzo[e][1,4]diazepin-9-yl)amino)-N-(2-(trifluoromethyl)benzyl)acetamide]	6
